Where a name gives a salt, the structure may show the parent alone.
Assays:
[1] = molecular target: NaV1.1 (Homo sapiens (Human), UniProt P35498); test: Sodium Influx Assay (Flux), NaV1.1; format: cell-based; settings: Trex HEK293 cells, ANG2 dye; arithmetic mean
[2] = molecular target: NaV1.6 (Homo sapiens (Human), UniProt Q9UQD0); test: Sodium Influx Assay (Flux), NaV1.6; settings: read-out: Flux NaV1.6 IC50; Trex HEK293 cells, ANG2 dye; arithmetic mean
[3] = molecular target: NaV1.5 (Homo sapiens (Human), UniProt Q14524); test: Sodium Influx Assay (Flux), NaV1.5; settings: read-out: Flux NaV1.5 IC50; Trex HEK293 cells, ANG2 dye; arithmetic mean
Sequence of NaV1.5 (Q14524 other isoform, or with tags, fused parts or gaps): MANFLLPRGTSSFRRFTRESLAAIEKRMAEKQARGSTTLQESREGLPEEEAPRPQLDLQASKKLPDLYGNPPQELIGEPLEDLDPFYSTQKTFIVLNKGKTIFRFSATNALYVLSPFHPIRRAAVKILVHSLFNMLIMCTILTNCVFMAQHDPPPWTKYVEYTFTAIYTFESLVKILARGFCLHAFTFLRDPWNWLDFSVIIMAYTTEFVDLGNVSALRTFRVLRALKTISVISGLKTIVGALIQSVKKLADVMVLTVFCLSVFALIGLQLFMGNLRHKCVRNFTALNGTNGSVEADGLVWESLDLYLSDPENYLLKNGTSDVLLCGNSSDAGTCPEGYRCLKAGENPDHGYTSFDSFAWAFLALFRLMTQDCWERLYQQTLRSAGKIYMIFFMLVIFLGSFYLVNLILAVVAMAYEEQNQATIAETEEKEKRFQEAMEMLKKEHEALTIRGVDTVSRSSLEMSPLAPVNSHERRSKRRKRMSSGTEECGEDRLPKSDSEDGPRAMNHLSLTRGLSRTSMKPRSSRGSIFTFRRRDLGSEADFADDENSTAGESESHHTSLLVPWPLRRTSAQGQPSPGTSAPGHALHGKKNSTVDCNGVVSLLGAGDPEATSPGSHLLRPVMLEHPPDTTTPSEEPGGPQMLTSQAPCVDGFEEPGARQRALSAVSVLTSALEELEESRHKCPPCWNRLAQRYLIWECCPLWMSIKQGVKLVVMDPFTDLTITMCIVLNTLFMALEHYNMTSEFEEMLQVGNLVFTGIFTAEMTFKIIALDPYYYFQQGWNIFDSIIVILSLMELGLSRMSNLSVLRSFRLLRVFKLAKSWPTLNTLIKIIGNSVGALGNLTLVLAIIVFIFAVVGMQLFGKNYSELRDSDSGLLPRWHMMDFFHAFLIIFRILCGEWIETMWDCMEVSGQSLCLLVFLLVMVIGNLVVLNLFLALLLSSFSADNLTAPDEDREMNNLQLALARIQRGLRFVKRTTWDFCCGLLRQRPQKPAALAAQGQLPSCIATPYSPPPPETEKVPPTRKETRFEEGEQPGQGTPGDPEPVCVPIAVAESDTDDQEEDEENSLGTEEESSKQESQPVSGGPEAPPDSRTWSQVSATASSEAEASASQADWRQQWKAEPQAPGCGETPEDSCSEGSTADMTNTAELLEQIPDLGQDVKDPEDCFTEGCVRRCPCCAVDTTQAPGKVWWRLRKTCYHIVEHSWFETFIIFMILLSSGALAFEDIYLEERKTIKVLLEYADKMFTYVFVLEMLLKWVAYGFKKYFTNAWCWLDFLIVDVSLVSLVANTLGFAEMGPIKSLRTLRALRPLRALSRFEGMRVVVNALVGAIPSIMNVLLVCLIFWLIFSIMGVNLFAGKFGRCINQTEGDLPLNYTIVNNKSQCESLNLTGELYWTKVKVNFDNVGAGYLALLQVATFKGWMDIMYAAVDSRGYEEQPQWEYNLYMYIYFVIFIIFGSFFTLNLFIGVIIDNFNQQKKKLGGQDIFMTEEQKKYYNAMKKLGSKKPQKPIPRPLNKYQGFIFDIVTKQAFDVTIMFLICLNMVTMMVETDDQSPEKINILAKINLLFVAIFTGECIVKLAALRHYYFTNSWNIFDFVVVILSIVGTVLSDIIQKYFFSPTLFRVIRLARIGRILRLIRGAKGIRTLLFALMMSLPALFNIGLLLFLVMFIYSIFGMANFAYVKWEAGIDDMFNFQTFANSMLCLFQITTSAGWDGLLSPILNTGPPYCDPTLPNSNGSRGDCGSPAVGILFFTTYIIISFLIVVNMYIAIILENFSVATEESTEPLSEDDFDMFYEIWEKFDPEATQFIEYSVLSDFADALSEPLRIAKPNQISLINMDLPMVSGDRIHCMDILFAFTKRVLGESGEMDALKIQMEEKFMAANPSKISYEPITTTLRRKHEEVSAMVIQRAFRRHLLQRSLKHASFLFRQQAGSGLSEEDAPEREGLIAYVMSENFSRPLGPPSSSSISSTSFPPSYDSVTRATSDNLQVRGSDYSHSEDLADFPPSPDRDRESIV

Row | IC50 [1] | IC50 [2] | SMILES | IC50 [3]
1 | 6.55 µM | 0.047 µM | CN(c1ccc(S(=O)(=O)Nc2ncns2)cc1Cl)[C@H]1CCN(Cc2cccc(Cl)c2F)C1 [Example 32, (S)-3-chloro-4-((1-(3-chloro-2-fluorobenzyl)pyrrolidin-3-yl)(methyl)amino)-N-(1,2,4-thiadiazol-5-yl)benzenesulfonamide] | 7.41 µM
2 | 15.9 µM | 0.021 µM | Cc1ccc(F)c(CN2CC[C@H](N(C)c3ccc(S(=O)(=O)Nc4ncns4)cc3Cl)C2)c1 [Example 35, (S)-3-chloro-4-((1-(2-fluoro-5-methylbenzyl)pyrrolidin-3-yl)(methyl)amino)-N-(1,2,4-thiadiazol-5-yl)benzenesulfonamide] | > 30 µM
3 | > 30 µM | 0.195 µM | CCN(c1ccc(S(=O)(=O)Nc2ncns2)cc1Cl)[C@H]1CCN(Cc2cccc(C)c2)C1 [Example 37, (S)-3-chloro-4-(ethyl(1-(3-methylbenzyl)pyrrolidin-3-yl)amino)-N-(1,2,4-thiadiazol-5-yl)benzenesulfonamide] | > 30 µM
4 | 4.96 µM | 0.732 µM | CN(c1cc(F)c(S(=O)(=O)Nc2nccs2)cc1Cl)[C@H]1CCN(Cc2ccccc2)C1 [Example 39, (S)-4-((1-benzylpyrrolidin-3-yl)(methyl)amino)-5-chloro-2-fluoro-N-(thiazol-2-yl)benzenesulfonamide bis(trifluoroacetic acid) salt] | 13.1 µM
5 | 4.38 µM | 0.155 µM | C[C@@H](c1ccccc1)N1CC[C@H](N(C)c2ccc(S(=O)(=O)Nc3nccs3)cc2Cl)C1 [Example 42, 3-chloro-4-(methyl((S)-1-((S)-1-phenylethyl)pyrrolidin-3-yl)amino)-N-(thiazol-2-yl)benzenesulfonamide] | 9.11 µM
6 | 11.2 µM | 1.98 µM | C[C@H](c1ccccc1)N1CC[C@H](N(C)c2cc(F)c(S(=O)(=O)Nc3cccc(F)n3)cc2Cl)C1 [Example 45, 5-chloro-2-fluoro-N-(6-fluoropyridin-2-yl)-4-(methyl((S)-1-((R)-1-phenylethyl)pyrrolidin-3-yl)amino)benzenesulfonamide 2,2,2-trifluoroacetate] | > 30 µM
7 | 10.5 µM | 3.67 µM | COc1ccc(CN2CCC(Oc3ccc(S(=O)(=O)Nc4nccs4)cc3Cl)CC2)cc1 [Example 48, 3-chloro-4-((1-(4-methoxybenzyl)piperidin-4-yl)oxy)-N-(thiazol-2-yl)benzenesulfonamide] | 7.82 µM
8 | 17.6 µM | 6.58 µM | O=S(=O)(Nc1nccs1)c1ccc(OC2CCN(Cc3ccc4ccccc4c3)CC2)c(Cl)c1 [Example 51, 3-chloro-4-((1-(naphthalen-2-ylmethyl)piperidin-4-yl)oxy)-N-(thiazol-2-yl)benzenesulfonamide 2,2,2-trifluoroacetate] | 3.48 µM
9 | > 30 µM | 27.7 µM | O=S(=O)(Nc1nccs1)c1ccc(OC2CCN(Cc3ccncc3)CC2)c(Cl)c1 [Example 63, 3-chloro-4-((1-(pyridin-4-ylmethyl)piperidin-4-yl)oxy)-N-(thiazol-2-yl)benzenesulfonamide] | > 30 µM
10 | > 30 µM | 5.63 µM | O=S(=O)(Nc1nccs1)c1ccc(OC2CCN(Cc3cccnc3)CC2)c(Cl)c1 [Example 64, 3-chloro-4-((1-(pyridin-3-ylmethyl)piperidin-4-yl)oxy)-N-(thiazol-2-yl)benzenesulfonamide] | > 30 µM
11 | 1.76 µM | 0.697 µM | O=S(=O)(Nc1nccs1)c1ccc(N[C@@H]2CCN(Cc3cccc(Cl)c3)C2)c(Cl)c1 [Example 69, (R)-3-chloro-4-((1-(3-chlorobenzyl)pyrrolidin-3-yl)amino)-N-(thiazol-2-yl)benzenesulfonamide] | 6.15 µM
12 | 3.18 µM | 0.664 µM | Cc1cccc(CN2CC[C@@H](Nc3ccc(S(=O)(=O)Nc4nccs4)cc3Cl)C2)c1 [Example 70, (R)-3-chloro-4-((1-(3-methylbenzyl)pyrrolidin-3-yl)amino)-N-(thiazol-2-yl)benzenesulfonamide] | 4.2 µM

More lines, now with the values behind:

Row | SMILES | IC50 [1] | IC50 [2] | IC50 [3]
13 | O=S(=O)(Nc1nccs1)c1ccc(OC2CCN(Cc3ccc(C(F)(F)F)cc3)CC2)c(Cl)c1 [Example 23, 3-chloro-N-(thiazol-2-yl)-4-((1-(4-(trifluoromethyl)benzyl)piperidin-4-yl)oxy)benzenesulfonamide 2,2,2-trifluoroacetate] | > 30 µM | > 30 µM | 29.6 µM
14 | Cc1ccc(CN2CCC(Oc3ccc(S(=O)(=O)Nc4nccs4)cc3Cl)CC2)cc1 [Example 24, 3-chloro-N-(thiazol-2-yl)-4-((1-(4-methylbenzyl)piperidin-4-yl)oxy)benzenesulfonamide 2,2,2-trifluoroacetate] | 12.6 µM | 2.54 µM | 13.5 µM
15 | CN(c1ccc(S(=O)(=O)Nc2ncns2)cc1Cl)[C@H]1CCN(Cc2cccc(Cl)c2)C1 [Example 30, (S)-3-chloro-4-((1-(3-chlorobenzyl)pyrrolidin-3-yl)(methyl)amino)-N-(1,2,4-thiadiazol-5-yl)benzenesulfonamide] | 7.97 µM | 0.021 µM | 18.7 µM
16 | Cc1cccc(CN2CC[C@H](N(C)c3ccc(S(=O)(=O)Nc4ncns4)cc3Cl)C2)c1F [Example 34, (S)-3-chloro-4-((1-(2-fluoro-3-methylbenzyl)pyrrolidin-3-yl)(methyl)amino)-N-(1,2,4-thiadiazol-5-yl)benzenesulfonamide 2,2,2-trifluoroacetate] | 19.9 µM | 0.039 µM | > 30 µM
17 | O=S(=O)(Nc1nccs1)c1ccc(OC2CCN(C3CCc4ccccc43)CC2)c(Cl)c1 (stereo not drawn) [Example 49, 3-chloro-4-((1-(2,3-dihydro-1H-inden-1-yl)piperidin-4-yl)oxy)-N-(thiazol-2-yl)benzenesulfonamide 2,2,2-trifluoroacetate] | 5.59 µM | 0.491 µM | 5.4 µM
18 | O=S(=O)(Nc1nccs1)c1ccc(NC2CN(Cc3ccccc3)C2)c(Cl)c1 [Example 50, 4-((1-benzylazetidin-3-yl)amino)-3-chloro-N-(thiazol-2-yl)benzenesulfonamide 2,2,2-trifluoroacetate] | 4.15 µM | 1.08 µM | 5.71 µM
19 | CC(c1ccccc1)N1CCC(Oc2cc(F)c(S(=O)(=O)Nc3nccs3)cc2Cl)CC1 (stereo not drawn) [Example 54, 5-chloro-2-fluoro-4-((1-(1-phenylethyl)piperidin-4-yl)oxy)-N-(thiazol-2-yl)benzenesulfonamide] | 9.93 µM | 0.156 µM | 16.7 µM
20 | C[C@H](c1ccccc1)N1CCC(Oc2cc(F)c(S(=O)(=O)Nc3nccs3)cc2Cl)CC1 [Example 56, (R)-5-chloro-2-fluoro-4-((1-(1-phenylethyl)piperidin-4-yl)oxy)-N-(thiazol-2-yl)benzenesulfonamide 2,2,2-trifluoroacetate] | 12.5 µM | 0.392 µM | 10.1 µM
21 | CC(C)(c1ccccc1)N1CCC(Oc2cc(F)c(S(=O)(=O)Nc3nccs3)cc2Cl)CC1 [Example 60, 5-chloro-2-fluoro-4-((1-(2-phenylpropan-2-yl)piperidin-4-yl)oxy)-N-(thiazol-2-yl)benzenesulfonamide 2,2,2-trifluoroacetate] | 13.3 µM | 0.452 µM | 15.9 µM
